This note sets out measurements from patent US5744621A, “Irreversible HIV protease inhibitors, intermediates, compositions and processes for the preparation thereof” (Lucky Limited., priority 1992, dated 1998).

Molecules are shown by their SMILES. Read-outs that look alike come from different tables or passages of the source.

For one series, the target named is HIV-1. Kind of series: Anti-viral activity: syncytium formation (Sup T1) or reverse transcriptase assay (H9). In kind it is cell-based.
A further series relates to H9 cell or Sup T1 cell. Kind of series: Cytotoxicity in H9 or Sup T1 cells (trypan blue dye exclusion). The format is cell-based. The following applies: human, h9 or sup t1 cells.
Test in series [1]: as above
The following applies: human. The format is cell-based.

For the next series, the target named is T1, HIV-1 protease (Human immunodeficiency virus type 1 group M subtype B, UniProt P04585).
T1 construct: 2.6 nM of HIV-1 protease
Kind of series: Assay for inhibitory effect on HIV protease (residual enzyme activity, HPLC of substrate cleavage). The settings on record: pH 5.5; for Ki / kinact: HIV-1 protease 2.6 nM; for Ki: inhibition constant; for kinact: rate constant of covalent bond formation, read-out: kina (converted); for kinact/KI: second order rate constant, HIV-1 protease, read-out: kina /KI (converted). The format is biochemical. In short, it runs like this:
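HIV-1 protease (2.6 nM) incubated with inhibitor in 50 mM sodium acetate pH 5.5, 1 mM DTT, 1 mM EDTA, 0.75 M ammonium sulfate, 0.2 M NaCl, 0.1% NP40. Residual activity was sampled over time using 100 μM p-NO2-Phe undecapeptide substrate (KM 20 μM), HPLC, 280 nm. kobs came from ln(activity)-versus-time slope, and KI and kina from kinetic fitting.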

[2] abbreviates: Human immunodeficiency virus 1, SUP-T1.
Where [3] appears, read: concentration that causes death of cells by 50%, H9 or Sup T1 cells, 37° C, read-out: CT50 (the source's name).

What is called IC50 is the concentration needed to halve the response being measured. As for `CC(C)[C@H](NC(=O)OCc1ccccc1)C(=O)N[C@@H](Cc1ccccc1)[C@@H](O)[C@H](O)[C@H](Cc1ccccc1)NC(=O)[C@@H](NC(=O)OCc1ccccc1)C(C)C` [A-75925, reference compound], the IC50 on HIV-1 (inhibits proliferation of HIV by 50%, Sup T1 syncytium or H9 reverse transcriptase assay, 37° C, read-out: IC50) stood at 250 nM. The compound further showed a CC50 with H9 cell or Sup T1 cell greater than 100000 nM.

By Ki is commonly meant the dissociation constant of the complex between target and ligand, obtained from inhibition or displacement. A low value points to a stronger hold on the target. In the case of `CC(C)[C@H](NC(=O)N(C)Cc1ccccn1)C(=O)NC[C@@H]1O[C@@H]1[C@H](Cc1ccccc1)NC(=O)[C@@H](NC(=O)N(C)Cc1ccccn1)C(C)C` [compound 80], the IC50 in the series on HIV-1 (setting [2]) is 500 nM. Besides, in series [1] (setting [3]), the CC50 was greater than 100000 nM. Also, at HIV-1 protease, the Ki worked out at 150 nM, the kinact is 0.00533 s⁻¹ and the kinact/KI is 35000 M⁻¹ s⁻¹.

In turn, `CC(C)[C@H](NC(=O)OCc1ccccc1)C(=O)N[C@@H](Cc1ccccc1)[C@H]1O[C@H]1CNC(=O)OC(C)(C)C` [compound 82, 4S-[N^1-(t-butoxycarbonyl)amino]-[N^4-[(N-benzyloxycarbonyl-L-valinyl)amino]]-5-phenyl-(2S,3R)-(Z)-epoxypentane] gave an IC50 in the series on HIV-1 (setting [2]) of 750 nM. Moreover, the CC50 in series [1] (setting [3]) is greater than 10000 nM. In addition, on HIV-1 protease, the affinity corresponds to a Ki of 450 nM, the kinact was 0.0183 s⁻¹ and the kinact/KI was 40000 M⁻¹ s⁻¹.

The compound `CC(C)(C)OC(=O)NC[C@@H]1O[C@@H]1[C@H](Cc1ccccc1)NC(=O)[C@H](CC(N)=O)NC(=O)c1ccc2ccccc2n1` [compound 83] displayed an IC50 in the series on HIV-1 (setting [2]) of 750 nM. In addition, the CC50 in series [1] (setting [3]) is greater than 10000 nM. In addition, at HIV-1 protease, the affinity, expressed as Ki, was 400 nM; the kinact was 0.02 s⁻¹; the kinact/KI is 50000 M⁻¹ s⁻¹.

In the series with HIV-1 (setting [2]), `NC(=O)C[C@H](NC(=O)c1ccc2ccccc2n1)C(=O)NC[C@@H]1O[C@@H]1[C@H](Cc1ccccc1)NC(=O)[C@H](CC(N)=O)NC(=O)c1ccc2ccccc2n1` [compound 84] displayed an IC50 of 1000 nM. In series [1] (setting [3]), the CC50 is greater than 100000 nM. Further, on HIV-1 protease, the affinity corresponds to a Ki of 500 nM, the kinact was 0.00333 s⁻¹ and the kinact/KI is 6670 M⁻¹ s⁻¹.

For `NC(=O)C[C@H](NC(=O)OCc1ccccc1)C(=O)NC[C@@H]1O[C@@H]1[C@H](CC1CCCCC1)NC(=O)[C@H](CC(N)=O)NC(=O)OCc1ccccc1` [compound 85], in the series with HIV-1 (setting [2]), the IC50 was determined as 5000 nM. The CC50 in series [1] (h9 or sup t1 cells) was greater than 100000 nM. This compound returned a Ki at HIV-1 protease greater than 10000 nM.

For the compound `CC(C)[C@H](NC(=O)OCc1ccccc1)C(=O)NC[C@@H]1O[C@@H]1[C@H](CC1CCCCC1)NC(=O)[C@@H](NC(=O)OCc1ccccc1)C(C)C` [compound 86, 4S-1,4-bis[N-(N'-benzyloxycarbonyl-L-valinyl)amino]-5-cyclohexyl-(2S,3R)-(Z)-epoxypentane], half-maximal inhibition in the series on HIV-1 (setting [2]) (IC50) required 500 nM. Besides, the CC50 in series [1] (setting [3]) was greater than 100000 nM. Moreover, on HIV-1 protease, affinity was put at a Ki of 50 nM, the kinact was 0.00333 s⁻¹ and the kinact/KI is 66700 M⁻¹ s⁻¹.
